Test results as given in patent US12479794B2, “Acetophenone oxime compound and application thereof” (Medshine Discovery Inc., priority 2020, dated 2025).
Structures can show the parent of a compound that is named as a salt. Where two headings read alike, the source gives them in different places.

Columns and labels:
[1] = molecular target: T1, S1P1 (Homo sapiens, UniProt P21453); assay: In vitro agonistic activity on S1P1, U2OS-EDG1 cells, LiveBLAzer FRET B/G; format: cell-based; conditions: for Emax: % Effect
T1 construct: host or cells: U2OS
Description: Assay Example 1: In Vitro Evaluation of the Agonistic Activity of the Compounds of the Present Disclosure on S1P1
Object of the assay: To detect the agonistic activity of compounds on S1P1
• 1. Cells U2OS-EDG1 (Batch No.: Invitrogen-K1520) were taken out of a liquid nitrogen tank and placed in a 37° C. water bath to thaw quickly; • 2. The cell suspension was aspirated into a 15 ml centrifuge tube, resuspended in 5 ml of preheated medium, and centrifuged at 1000 rpm for 5 min; • 3. The supernatant was discarded. The cells were resuspended in 10 ml of medium, transferred into a T75 culture flask, and cultivated in an incubator with 5% CO2 at 37° C. II. Agonist Assay • 1. The compounds were diluted to working concentrations, and serially diluted 3-fold by Echo 555 (manufacturer: Labcyte) to obtain 10 concentrations; 200 nL of each concentration of the compound was transferred to a cell plate and centrifuged at 1000 rpm for 15 seconds; • 2. Culture medium was aspirated from the culture flask; 4 mL of Dulbecco's phosphate buffer (DPBS, supplier: Coring, item No.: 21-031-CVR, batch No.: 03318006) was added, and the residual serum was washed away; 2 mL of trypsin was added; The mixture was incubated in an incubator at 37° C. for 2 min, and the cells were digested; 10 mL of seeding medium was added to resuspend the cells; 0.6 mL of cell suspension was taken out and counted; • 3. The density of cells was adjusted to 1.88E+05 cells/mL using seeding medium, with 40 μL per well (7500\well); 40 μL of FreeStyle™ Expression medium was added around the cell plate; The plate was let stand at room temperature for 15 min and incubated at 37° C. with 5% CO2 for 20 hours. III. Signal Detection • 1. LiveBLAzer™-FRET B/G Substrate (CCF4-AM) assay reagents were formulated according to the instructions; • 2. 8 μL of 6×Substrate Mixture was added to each well of the cell plate; The plate was centrifuged at 1000 rpm for 15 seconds, covered with a film, and incubated at 23° C. for 2 hours; The cell plate was subjected to Envision […] detection. IV. Data Analysis • 1. The raw data were converted into % Effect by using an equation, and the EC50 value can be obtained by curve fitting with four parameters [“log(agonist) vs. response—Variable slope” model in GraphPad Prism]; • 2. Calculation formula: Ratio=(460 nm−blank)/(535 nm−blank) % Effect=(SampleRatio−Ave LCRatio)/(Ave HCRatio−Ave LCRatio)×100%

[2] = Pharmacokinetic evaluation in SD rats (iv and oral); format: in vivo, Sprague Dawley rats; conditions: male, Sprague-Dawley, rat, plasma; for half-life: read-out: Half life T1/2 (PO) (converted); for clearance: read-out: Clearance rate CL; for Vd: read-out: Distribution in tissue Vdss; for bioavailability: read-out: Bioavailability F; for Cmax: read-out: Peak concentration Cmax
Description: Assay Example 2: Pharmacokinetic Evaluation of Compounds in Rats
Object of the assay: To evaluate the in vivo pharmacokinetics of the compounds in SD rats
Sprague Dawley rats (male, 200-300 g, 7-9 weeks old, Shanghai SLAC)
The pharmacokinetic characteristics of the compounds in rodents after intravenous injection and oral administration were assayed according to the standard protocol. In the assay, the candidate compounds were formulated into clear solutions and administered to rats by single intravenous injection and oral administration. The vehicle for intravenous injection and oral administration was DMSO and 10% hydroxypropyl β-cyclodextrin in water (DMSO:10% hydroxypropyl β-cyclodextrin in water=5:95). Whole blood samples were collected within 48 hours, and centrifuged at 3000 g for 15 minutes. The supernatant was separated to give plasma samples. 4 times the volume of acetonitrile solution containing internal standard was added to precipitate protein. The resulting mixture was centrifuged and the supernatant was taken out. An equal volume of water was added and the mixture was centrifuged. The supernatant was taken out, and injected as a sample to quantitatively analyze the plasma drug concentration by LC-MS/MS analysis method. The pharmacokinetic parameters, such as peak concentration, time to peak, clearance rate, half-life, area under drug-time curve, bioavailability, etc., were calculated.

[3] = intravenous, iv 1.0, po 2.0 mg/kg
[4] = po, 2 mg/kg, iv 1.0, po 2.0 mg/kg, PO, read-out: Area under drug-time curve AUC0-last PO

T1 sequence (P21453 whole entry): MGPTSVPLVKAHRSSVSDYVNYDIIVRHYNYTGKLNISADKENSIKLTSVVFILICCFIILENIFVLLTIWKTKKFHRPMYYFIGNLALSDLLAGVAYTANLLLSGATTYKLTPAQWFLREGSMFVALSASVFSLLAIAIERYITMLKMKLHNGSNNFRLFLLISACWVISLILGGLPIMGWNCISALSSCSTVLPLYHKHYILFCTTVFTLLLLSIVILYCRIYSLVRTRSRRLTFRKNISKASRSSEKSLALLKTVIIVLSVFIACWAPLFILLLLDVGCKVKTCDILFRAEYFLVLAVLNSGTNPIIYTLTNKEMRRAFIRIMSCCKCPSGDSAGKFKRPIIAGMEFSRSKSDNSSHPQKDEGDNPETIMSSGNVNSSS

CC(=NOCc1ccc(OC(C)C)c(C(F)(F)F)c1)c1ccc2c(c1)CCC2N1CC(C(=O)O)C1 (single isomer, unassigned) [Compound 32A]
EC50 [1]: 0.00384 µM
Emax [1]: 101%
half-life ([2]; intravenous, 1 mg/kg, iv 1.0 mg/kg only (head prints PO)): 7.5 h
AUC(0-t) ([2]; iv, 1 mg/kg, iv 1.0 mg/kg, read-out: Area under drug-time curve AUC0-last iv): 6.84 µM·h
clearance ([2]; iv, 1 mg/kg, iv 1.0 mg/kg): 4.5 mL/min/kg
Vd ([2]; iv, 1 mg/kg, iv 1.0 mg/kg): 2.78 L/kg

C/C(=N\OCc1ccc(C2CCCCC2)c(C(F)(F)F)c1)c1ccc2c(c1)CC(NCCC(=O)O)C2 (stereo not drawn) [Compound 1 trifluoroacetate]
EC50 [1]: 0.0416 µM
Emax [1]: 88.4%

C/C(=N\OCc1ccc(C2CCCCC2)c(C(F)(F)F)c1)c1ccc2c(c1)CCC2NCC1(C(=O)O)CC1 (stereo not drawn) [Compound 3 trifluoroacetate]
EC50 [1]: 0.00577 µM
Emax [1]: 95%
AUC(0-t) ([2]; iv 1.4, po 2.7 mg/kg, PO, read-out: Area under drug-time curve AUC0-last PO): 7.05 µM·h
half-life ([2]; iv 1.4, po 2.7 mg/kg, PO): 11.3 h
bioavailability ([2]; iv 1.4, po 2.7 mg/kg): 59.3%
clearance ([2]; iv 1.4, po 2.7 mg/kg): 6.87 mL/min/kg
Vd ([2]; iv 1.4, po 2.7 mg/kg): 5.47 L/kg
Cmax ([2]; iv 1.4, po 2.7 mg/kg): 393 nM

C/C(=N\OCc1ccc(OC(C)C)c(C(F)(F)F)c1)c1ccc2c(c1)CCC2NCC(=O)O (stereo not drawn) [Compound 10 hydrochloride]
EC50 [1]: 0.0572 µM
Emax [1]: 84.2%

C/C(=N\OCc1ccc(C2CCCCC2)c(C(F)(F)F)c1)c1ccc2c(c1)CCC2N(C)CCC(=O)O (stereo not drawn) [Compound 11 trifluoroacetate]
EC50 [1]: 0.00497 µM
Emax [1]: 97.4%
AUC(0-t) ([2]; iv 1.2, po 2.4 mg/kg, PO, read-out: Area under drug-time curve AUC0-last PO): 11.3 µM·h
half-life ([2]; iv 1.2, po 2.4 mg/kg, PO): 9.08 h
bioavailability ([2]; iv 1.2, po 2.4 mg/kg): 64%
clearance ([2]; iv 1.2, po 2.4 mg/kg): 4.24 mL/min/kg
Vd ([2]; iv 1.2, po 2.4 mg/kg): 3.32 L/kg
Cmax ([2]; iv 1.2, po 2.4 mg/kg): 605 nM

C/C(=N\OCc1ccc(OCC(C)C)c(C(F)(F)F)c1)c1ccc2c(c1)CCC2NCC1(C(=O)O)CC1 (stereo not drawn) [Compound 13 hydrochloride]
EC50 [1]: 0.0141 µM
Emax [1]: 102%

C/C(=N\OCc1ccc(OCC2CC2)c(C(F)(F)F)c1)c1ccc2c(c1)CCC2NCC1(C(=O)O)CC1 (stereo not drawn) [Compound 14 hydrochloride]
EC50 [1]: 0.0274 µM
Emax [1]: 113%

C/C(=N\OCc1ccc(C2CCCCC2)c(C(F)(F)F)c1)c1ccc2c(c1)CCC2NCCC(=O)O (stereo not drawn) [Compound 20]
EC50 [1]: 0.00892 µM
Emax [1]: 51%

C/C(=N\OCc1ccc(OCC2CC2)c(C(F)(F)F)c1)c1ccc2c(c1)CCC2N(C)CCC(=O)O (stereo not drawn) [Compound 21]
EC50 [1]: 0.0123 µM
Emax [1]: 106%
clearance [2, 3]: 5.43 mL/min/kg
Vd [2, 3]: 2.05 L/kg
bioavailability ([2]; iv 1.0, po 2.0 mg/kg): 53.2%
Cmax ([2]; iv 1.0, po 2.0 mg/kg): 486 nM
AUC(0-t) [2, 4]: 6.13 µM·h

C/C(=N\OCc1ccc(OCC(C)C)c(C(F)(F)F)c1)c1ccc2c(c1)CCC2N(C)CCC(=O)O (stereo not drawn) [Compound 22 formate]
EC50 [1]: 0.0192 µM
Emax [1]: 107%

C/C(=N\OCc1ccc(OC(F)F)c(C(F)(F)F)c1)c1ccc2c(c1)CCC2N1CC(C(=O)O)C1 (stereo not drawn) [Compound 28]
EC50 [1]: 0.0231 µM
Emax [1]: 121%

C/C(=N\OCc1ccc(OCC(C)C)c(C(F)(F)F)c1)c1ccc2c(c1)CCC2N1CC(C(=O)O)C1 (stereo not drawn) [Compound 29]
EC50 [1]: 0.00862 µM
Emax [1]: 103%
clearance [2, 3]: 3.68 mL/min/kg
Vd [2, 3]: 2.24 L/kg
bioavailability ([2]; iv 1.0, po 2.0 mg/kg): 59.4%
Cmax ([2]; iv 1.0, po 2.0 mg/kg): 615 nM
AUC(0-t) [2, 4]: 9.52 µM·h

C/C(=N\OCc1ccc(C2CCCCC2)c(C(F)(F)F)c1)c1ccc2c(c1)CCC2N1CC(C(=O)O)C1 (stereo not drawn) [Compound 30]
EC50 [1]: 0.0165 µM
Emax [1]: 63.4%
clearance [2, 3]: 3.93 mL/min/kg
Vd [2, 3]: 4.19 L/kg
bioavailability ([2]; iv 1.0, po 2.0 mg/kg): 62.1%
Cmax ([2]; iv 1.0, po 2.0 mg/kg): 478 nM
AUC(0-t) [2, 4]: 7.54 µM·h

C/C(=N\OCc1ccc(OC2CCCC2)c(C(F)(F)F)c1)c1ccc2c(c1)CCC2N1CC(C(=O)O)C1 (stereo not drawn) [Compound 31]
EC50 [1]: 0.0103 µM
Emax [1]: 105%
clearance [2, 3]: 2.87 mL/min/kg
Vd [2, 3]: 0.88 L/kg
bioavailability ([2]; iv 1.0, po 2.0 mg/kg): 80.9%
Cmax ([2]; iv 1.0, po 2.0 mg/kg): 1660 nM
AUC(0-t) [2, 4]: 18.6 µM·h
half-life ([2]; po, 2 mg/kg, iv 1.0, po 2.0 mg/kg, PO): 4.6 h

C/C(=N\OCc1ccc(OCC2CC2)c(C(F)(F)F)c1)c1ccc2c(c1)CCC2N1CC(C(=O)O)C1 (stereo not drawn) [Compound 33]
EC50 [1]: 0.00298 µM
Emax [1]: 110%

C/C(=N\OCc1ccc(OC(C)C)c(C(F)(F)F)c1)c1ccc2c(c1)CCC2N(C)CCC(=O)O (stereo not drawn) [Compound 35]
EC50 [1]: 0.00688 µM
Emax [1]: 101%
